For series [1] the following is noted: cited from earlier work; for adverse reactions: clinical / reported in the literature.
For series [2] the following is noted: beagle; 200 mg indometacin farnesyl orally, formulated with the named additive. How it is done: In this test, the crossover method was employed by using six female beagles with the administration of 200 mg of indometacin farnesyl orally to each of them 30 min after breakfast, and sampling their blood at intervals to determine the concentration of indometacin farnesyl in their blood according to HPLC.
Six female beagles were used to determine indometacin farnesyl in the blood by the crossover method.
In the test, each sample was orally administered 30 min after breakfast and 2.5 ml of blood was sampled at intervals to determine the concentration of indometacin farnesyl under the HPLC conditions which will be described below.
The maximum blood concentration, Cmax (μg/ml), and the area under the blood concentration-time curve, AUC (μg hr/ml), 6 h after the administration of each of samples A to F were determined and expressed in terms of relative value with respect to those of a standard formulation.
stationary phase: Nucleosil®10 C18, 4.6 mm diameter×150mm
mobile phase: methanol/water (300/16)

Series [3] is described as follows: Rat lymph absorption test (lymph cannulation method, HPLC). It is filed as in vivo. The conditions noted are these: SD rats, 12-week old; 5 mg/kg indometacin farnesyl orally, formulated with the named additive. How it is done: In this test, 5 mg/kg of indometacin farnesyl was orally administered to SD rats (12-week old) and indometacin farnesyl in the lymphatic vessels was determined according to HPLC by the lymph cannulation method.

Results on four compounds are retold here after US5139740A, “Polyprenyl compound composition for soft capsules” (Eisai Co., Ltd., priority 1989, dated 1992).

Regarding `COc1ccc2c(c1)c(CC(=O)O)c(C)n2C(=O)c1ccc(Cl)cc1` [indometacin], the adverse reactions entry in series [1] is recorded as “various adverse reactions such as gastrointestinal or renal disturbances”.

Take `COc1ccc2c(c1)c(CC(=O)OCC=C(C)CC/C=C(\C)CCC=C(C)C)c(C)n2C(=O)c1ccc(Cl)cc1` [indomethacin farnesyl, (6E)-3,7,11-trimethyl-2,6,10-dodecatrienyl 1-(p-chlorobenzoyl)-5-methoxy-2-methyl-lH-indole-3-acetate]: the adverse reactions result in series [1] was “only slight adverse reactions”. Further, in series [1] (prior art statement), the antiinflammatory effect result was “long-lasting antiinflammatory”. Consider `CCCCC/C=C\C/C=C\CCCCCCCC(=O)O` [linolic acid], for which, in series [2], the “absorption of indometacin farnesyl (in words)” value was “particularly excellent absorption”. Further, the “absorption of indometacin farnesyl into lymph (in words)” value in series [3] is listed as “particularly excellent absorption”. Regarding `CCCCCCCC/C=C\CCCCCCCC(=O)O` [oleic acid], the “absorption of indometacin farnesyl (in words)” value in series [2] is “particularly excellent absorption”.
